Assay results from ChEMBL document CHEMBL6071132, “Synthetic approaches and application of representative clinically approved fluorine-enriched anti-cancer medications” (Eur J Med Chem, 2024).
Where a name gives a salt, the structure may show the parent alone. Each block holds one compound with its values, some of them ahead of it.

Legend:
[1] = target: Phosphatidylinositol 4,5-bisphosphate 3-kinase catalytic subunit gamma isoform (Homo sapiens, UniProt P48736); assay: Inhibition of PI3Kgamma (unknown origin)
Sequence of Phosphatidylinositol 4,5-bisphosphate 3-kinase catalytic subunit gamma isoform (P48736 whole entry, canonical isoform): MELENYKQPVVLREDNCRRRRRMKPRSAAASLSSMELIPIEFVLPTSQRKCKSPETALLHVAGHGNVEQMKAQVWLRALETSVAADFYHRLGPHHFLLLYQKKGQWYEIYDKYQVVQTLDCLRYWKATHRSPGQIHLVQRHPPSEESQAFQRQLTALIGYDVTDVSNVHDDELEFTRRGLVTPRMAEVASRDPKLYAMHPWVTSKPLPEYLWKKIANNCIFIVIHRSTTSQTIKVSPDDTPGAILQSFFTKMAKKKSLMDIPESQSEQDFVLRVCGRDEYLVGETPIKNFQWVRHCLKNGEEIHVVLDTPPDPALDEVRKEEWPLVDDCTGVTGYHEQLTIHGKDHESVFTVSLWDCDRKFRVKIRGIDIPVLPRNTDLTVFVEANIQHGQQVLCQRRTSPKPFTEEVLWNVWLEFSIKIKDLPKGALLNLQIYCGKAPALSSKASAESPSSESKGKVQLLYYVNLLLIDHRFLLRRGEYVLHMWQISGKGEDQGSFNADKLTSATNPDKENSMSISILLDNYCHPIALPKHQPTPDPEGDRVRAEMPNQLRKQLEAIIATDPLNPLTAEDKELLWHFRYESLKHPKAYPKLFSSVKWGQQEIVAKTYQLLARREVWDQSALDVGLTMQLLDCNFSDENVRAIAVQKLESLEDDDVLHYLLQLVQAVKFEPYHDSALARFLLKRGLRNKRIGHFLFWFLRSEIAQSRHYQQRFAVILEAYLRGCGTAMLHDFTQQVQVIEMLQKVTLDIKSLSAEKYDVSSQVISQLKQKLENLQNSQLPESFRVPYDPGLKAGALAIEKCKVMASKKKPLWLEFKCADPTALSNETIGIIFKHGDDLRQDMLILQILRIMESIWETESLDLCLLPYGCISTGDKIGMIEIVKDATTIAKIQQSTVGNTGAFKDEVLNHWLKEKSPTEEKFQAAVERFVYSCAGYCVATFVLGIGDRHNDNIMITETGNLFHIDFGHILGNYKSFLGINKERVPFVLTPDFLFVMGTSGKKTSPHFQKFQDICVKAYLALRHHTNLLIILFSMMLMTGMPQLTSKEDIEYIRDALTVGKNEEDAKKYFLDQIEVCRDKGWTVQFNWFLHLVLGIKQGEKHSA

[2] = test system: NCI-H358; assay: Antiproliferative activity against human NCI-H358 cells assessed as reduction in cell viability; type: functional, cell-based
[3] = test system: MIA PaCa-2; assay: Antiproliferative activity against human MIA PaCa-2 cells assessed as reduction in cell viability; type: functional, cell-based
[4] = test system: RPMI-8226; assay: Anticancer activity against human RPMI-8226 cells assessed as reduction in cell growth; type: functional, cell-based
[5] = test system: U-266; assay: Antiproliferative activity against human U266B1 cells assessed as reduction in cell viability; type: functional, cell-based
[6] = Antiproliferative activity against human ROSA KIT WT cells; type: toxicity, cell-based
[7] = test system: KARPAS-299; assay: cells; conditions: Homo sapiens, KARPAS-299, 72 h
Description: Antiproliferative activity against human KARPAS-299 cells assessed as inhibition of cell growth incubated for 72 hrs by celltiter-glo assay

[8] = target: ALK tyrosine kinase receptor (Homo sapiens, UniProt Q9UM73); assay: Inhibition of ALK (unknown origin)
Sequence of ALK tyrosine kinase receptor (Q9UM73 whole entry): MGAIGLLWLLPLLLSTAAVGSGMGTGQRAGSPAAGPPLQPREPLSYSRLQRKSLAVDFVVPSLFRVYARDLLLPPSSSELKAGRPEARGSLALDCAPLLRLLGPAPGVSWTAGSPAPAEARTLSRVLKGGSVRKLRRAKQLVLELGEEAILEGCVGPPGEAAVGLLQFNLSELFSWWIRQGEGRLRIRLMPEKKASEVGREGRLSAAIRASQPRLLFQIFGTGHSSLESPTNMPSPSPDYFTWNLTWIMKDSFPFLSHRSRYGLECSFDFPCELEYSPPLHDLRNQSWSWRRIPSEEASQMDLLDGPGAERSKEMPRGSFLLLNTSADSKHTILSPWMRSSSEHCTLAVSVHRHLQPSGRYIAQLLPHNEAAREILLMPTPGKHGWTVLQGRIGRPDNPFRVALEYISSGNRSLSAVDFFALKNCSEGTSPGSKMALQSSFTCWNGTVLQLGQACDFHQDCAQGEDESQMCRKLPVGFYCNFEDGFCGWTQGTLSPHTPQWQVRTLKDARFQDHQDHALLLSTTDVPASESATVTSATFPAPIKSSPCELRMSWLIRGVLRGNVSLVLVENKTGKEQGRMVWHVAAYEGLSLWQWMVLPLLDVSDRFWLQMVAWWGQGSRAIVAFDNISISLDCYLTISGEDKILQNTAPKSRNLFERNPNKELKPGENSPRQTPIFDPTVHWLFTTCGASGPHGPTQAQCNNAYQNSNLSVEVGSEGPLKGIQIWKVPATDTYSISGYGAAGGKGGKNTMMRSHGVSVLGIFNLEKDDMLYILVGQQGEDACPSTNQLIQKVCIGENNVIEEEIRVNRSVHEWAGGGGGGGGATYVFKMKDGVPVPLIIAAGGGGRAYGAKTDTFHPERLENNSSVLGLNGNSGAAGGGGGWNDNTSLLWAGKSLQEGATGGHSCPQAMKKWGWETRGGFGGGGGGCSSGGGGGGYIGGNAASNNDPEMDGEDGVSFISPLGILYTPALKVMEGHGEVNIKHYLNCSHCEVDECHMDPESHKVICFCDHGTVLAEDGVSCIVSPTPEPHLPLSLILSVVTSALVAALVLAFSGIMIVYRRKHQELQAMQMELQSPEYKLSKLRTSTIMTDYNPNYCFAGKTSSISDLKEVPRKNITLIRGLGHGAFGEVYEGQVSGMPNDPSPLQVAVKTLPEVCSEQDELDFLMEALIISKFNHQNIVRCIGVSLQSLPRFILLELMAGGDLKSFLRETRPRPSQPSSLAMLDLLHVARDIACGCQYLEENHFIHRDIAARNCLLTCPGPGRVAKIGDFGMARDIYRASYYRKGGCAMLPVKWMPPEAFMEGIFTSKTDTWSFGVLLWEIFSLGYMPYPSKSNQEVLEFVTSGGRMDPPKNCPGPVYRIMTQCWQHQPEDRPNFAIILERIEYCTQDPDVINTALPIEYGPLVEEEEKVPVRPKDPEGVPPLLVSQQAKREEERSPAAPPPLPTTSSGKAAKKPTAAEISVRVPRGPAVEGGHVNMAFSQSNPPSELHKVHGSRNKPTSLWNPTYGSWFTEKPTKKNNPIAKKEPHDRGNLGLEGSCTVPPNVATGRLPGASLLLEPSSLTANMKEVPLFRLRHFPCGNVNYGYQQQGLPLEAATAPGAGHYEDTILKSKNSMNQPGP

[9] = target: Tyrosine-protein kinase BTK (Homo sapiens, UniProt Q06187)
Sequence of Tyrosine-protein kinase BTK (Q06187 whole entry): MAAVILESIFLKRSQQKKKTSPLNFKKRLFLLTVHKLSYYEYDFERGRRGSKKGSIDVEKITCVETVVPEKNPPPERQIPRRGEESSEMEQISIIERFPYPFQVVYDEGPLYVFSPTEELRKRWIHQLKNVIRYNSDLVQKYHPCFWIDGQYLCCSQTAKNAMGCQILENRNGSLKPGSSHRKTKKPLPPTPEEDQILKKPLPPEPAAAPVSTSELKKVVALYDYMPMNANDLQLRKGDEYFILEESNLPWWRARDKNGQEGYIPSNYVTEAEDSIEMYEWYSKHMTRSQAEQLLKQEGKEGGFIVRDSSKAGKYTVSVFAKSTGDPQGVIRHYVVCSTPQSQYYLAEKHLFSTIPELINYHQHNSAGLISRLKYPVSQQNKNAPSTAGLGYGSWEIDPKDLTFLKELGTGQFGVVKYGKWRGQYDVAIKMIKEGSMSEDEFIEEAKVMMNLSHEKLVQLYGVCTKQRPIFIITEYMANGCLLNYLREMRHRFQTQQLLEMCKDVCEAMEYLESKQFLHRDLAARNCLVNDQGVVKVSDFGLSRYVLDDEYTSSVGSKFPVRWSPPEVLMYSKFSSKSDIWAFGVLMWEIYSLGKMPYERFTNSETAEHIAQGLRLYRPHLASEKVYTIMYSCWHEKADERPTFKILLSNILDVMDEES
Description: Inhibition of wild type BTK in human CLL cells assessed as

[10] = Inhibition of BTK C481T mutant (unknown origin); set-up: species or system Homo sapiens
[11] = Anticancer activity against human ME-1 cells; type: functional, cell-based

SMILES: CCC(=O)N1CC[C@H](Nc2ncnc3c2CN(c2cnc(OC)c(C(F)(F)F)c2)CC3)C1 [LENIOLISIB]
IC50 [1]: 2.23 nM

SMILES: CCOC(=O)[C@H](Cc1ccc(F)cc1)NC(=O)[C@@H](N)Cc1ccc(N(CCCl)CCCl)cc1 [MELPHALAN FLUFENAMIDE HYDROCHLORIDE]
IC50 [4]: 4 nM
IC50 [5]: 6 nM

SMILES: CCn1c(=O)c(-c2cc(NC(=O)Nc3ccccc3)c(F)cc2Br)cc2cnc(NC)cc21 [RIPRETINIB]
IC50 [6]: 34 nM

SMILES: CN1CCN(c2ccc(C(=O)Nc3n[nH]c4ccc(Cc5cccc(F)c5)cc34)c(NC3CCOCC3)c2)CC1
IC50 [7]: 10 nM

SMILES: O=C(/C=C\n1cnc(-c2cc(C(F)(F)F)cc(C(F)(F)F)c2)n1)NNc1cnccn1 [SELINEXOR]
IC50 [11]: 34 nM

Continued, values first:

IC50 [2]: 6 nM
IC50 [3]: 9 nM
SMILES: C=CC(=O)N1CCN(c2nc(=O)n(-c3c(C)ccnc3C(C)C)c3nc(-c4c(O)cccc4F)c(F)cc23)[C@@H](C)C1 [SOTORASIB]

IC50 [7]: 180 nM
IC50 [8]: 100 nM
SMILES: CN1CCN(c2ccc(C(=O)Nc3n[nH]c4ccc(Cc5ccccc5)cc34)c(NC3CCOCC3)c2)CC1

IC50 [9]: 3.68 nM
IC50 [10]: 7.23 nM
SMILES: COc1ccc(F)cc1C(=O)NCc1ccc(-c2nn([C@@H](C)C(F)(F)F)c(N)c2C(N)=O)cc1 [PIRTOBRUTINIB]
